In experiment [1] the target is T1, β1 -receptor (Cavia porcellus, UniProt H0W3H1).
T1 construct: isolated guinea pig atrial preparations; from tissue; host or cells: isolated guinea pig atria
Put plainly: inhibition of the positive chronotropic actions of isoproterenol in isolated guinea pig atrial preparations. To be noted: isolated guinea pig atria; vs isoproterenol positive chronotropic action; read-out: pA2 values β1 (atria) (converted). On the procedure: (§1) The in vitro β-adrenergic blocking properties of the novel compounds of this invention were evaluated in accordance with standard procedures. The interaction with the β1 -receptor was determined via inhibition of the positive chronotropic actions of isoproterenol in isolated guinea pig atrial preparations. β2 potency was determined by using isolated guinea pig tracheal chains contracted with PGF2α and by measuring inhibition of isoproterenol-induced relaxation.

For experiment [2], the system named is β1 -receptor. The experiment is described as above. As to conditions: β1 (atria) versus β2 (trachea), from pA2 values. On the procedure:
as §1

For another experiment, the target named is T2, β2 (Cavia porcellus, UniProt Q8K4Z4).
T2 construct: isolated guinea pig tracheal chains; from tissue; host or cells: isolated guinea pig tracheal chains
Put plainly: inhibition of isoproterenol-induced relaxation in isolated guinea pig tracheal chains contracted with PGF2α. To be noted: vs isoproterenol-induced relaxation, read-out: pA2 values β2 (trachea) (converted). The procedure:
as §1

T1 sequence (H0W3H1 1-470): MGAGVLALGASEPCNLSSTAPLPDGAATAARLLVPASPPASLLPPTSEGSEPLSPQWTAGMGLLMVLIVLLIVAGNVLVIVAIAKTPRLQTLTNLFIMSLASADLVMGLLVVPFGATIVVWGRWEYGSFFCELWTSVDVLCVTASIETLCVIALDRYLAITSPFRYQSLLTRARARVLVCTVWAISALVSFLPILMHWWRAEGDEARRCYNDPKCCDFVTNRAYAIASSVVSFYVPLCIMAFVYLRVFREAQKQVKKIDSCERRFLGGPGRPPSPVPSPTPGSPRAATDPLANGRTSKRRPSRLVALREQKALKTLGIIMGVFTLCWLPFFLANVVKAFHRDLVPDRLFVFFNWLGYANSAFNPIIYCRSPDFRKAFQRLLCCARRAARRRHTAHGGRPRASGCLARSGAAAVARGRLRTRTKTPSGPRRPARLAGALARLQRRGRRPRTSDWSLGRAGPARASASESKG
T2 sequence (Q8K4Z4 whole entry): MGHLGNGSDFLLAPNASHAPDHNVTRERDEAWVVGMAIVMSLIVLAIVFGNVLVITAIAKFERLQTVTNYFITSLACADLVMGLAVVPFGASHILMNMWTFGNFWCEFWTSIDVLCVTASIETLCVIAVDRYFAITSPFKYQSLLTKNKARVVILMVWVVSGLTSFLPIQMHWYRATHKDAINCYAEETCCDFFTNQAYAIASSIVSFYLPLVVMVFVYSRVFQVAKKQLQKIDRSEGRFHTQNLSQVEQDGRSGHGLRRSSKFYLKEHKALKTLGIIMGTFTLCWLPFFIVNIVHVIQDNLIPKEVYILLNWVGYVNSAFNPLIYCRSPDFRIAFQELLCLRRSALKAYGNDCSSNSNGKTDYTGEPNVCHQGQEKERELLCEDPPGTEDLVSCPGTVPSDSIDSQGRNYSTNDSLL

Take `N#Cc1ccccc1OCC(O)CNCCN1CCOCC1` (stereo not shown): the Kb at β1 -receptor [1] is 23.4 nM; at β2, 138 nM. Besides, the Cardioselectivity ratio with β1 -receptor [2] was found to be 5.9.

For `N#Cc1ccccc1OCC(O)CNCCN1CCNCC1` (stereo not shown), the figures for the Kb at β1 -receptor [1] and on β2 were 34.7 nM and 34700 nM, respectively. The Cardioselectivity ratio with β1 -receptor [2] is on record as 1000.

For `N#Cc1ccccc1OCC(O)CNCCc1ccncc1` (stereo not shown), the Cardioselectivity ratio in the experiment on β1 -receptor [2] is recorded as 4.1.

As for `N#Cc1ccccc1OCC(O)CNCCc1ccccn1` (stereo not shown), the Kb on β1 -receptor [1] is 25.7 nM; on β2, 64.6 nM. Further, the Cardioselectivity ratio with β1 -receptor [2] is given as 2.5.

For `N#Cc1ccccc1OCC(O)CNCCc1cccnc1` (stereo not shown), the Kb on β1 -receptor [1] was 15.5 nM; at β2 it was 89.1 nM. In addition, in the experiment on β1 -receptor [2], the Cardioselectivity ratio came out at 5.8.

Values taken from US4883814A, “1-aryloxy-3-(substituted alkylamino)-2-propanols and use as β-blocker” (Merck & Co., Inc., priority 1988, dated 1989).
